# Test results: article PMC12336832, “A key loop in the catalytic pocket of the PL17 family of alginate lyases determines minimal substrate recognition” (The Journal of Biological Chemistry, 2025)
# Assays:
# VaAly17B = target: T1, VaAly17B (Vibrio alginolyticus, UniProt A0A2I3CRW2); test: TBA assay, TLC, gel filtration HPLC, ESI-MS; assay type: biochemical; settings: pH 8.0, 200 mM NaCl, 20 °C, 0.3% substrate
# T1 construct: gene N646_4460; N-terminal His tag, E. coli BL21(DE3), plasmid pZLZ05; no signal peptide predicted; theoretical 81,023 Da
# T1 sequence (A0A2I3CRW2 1-721): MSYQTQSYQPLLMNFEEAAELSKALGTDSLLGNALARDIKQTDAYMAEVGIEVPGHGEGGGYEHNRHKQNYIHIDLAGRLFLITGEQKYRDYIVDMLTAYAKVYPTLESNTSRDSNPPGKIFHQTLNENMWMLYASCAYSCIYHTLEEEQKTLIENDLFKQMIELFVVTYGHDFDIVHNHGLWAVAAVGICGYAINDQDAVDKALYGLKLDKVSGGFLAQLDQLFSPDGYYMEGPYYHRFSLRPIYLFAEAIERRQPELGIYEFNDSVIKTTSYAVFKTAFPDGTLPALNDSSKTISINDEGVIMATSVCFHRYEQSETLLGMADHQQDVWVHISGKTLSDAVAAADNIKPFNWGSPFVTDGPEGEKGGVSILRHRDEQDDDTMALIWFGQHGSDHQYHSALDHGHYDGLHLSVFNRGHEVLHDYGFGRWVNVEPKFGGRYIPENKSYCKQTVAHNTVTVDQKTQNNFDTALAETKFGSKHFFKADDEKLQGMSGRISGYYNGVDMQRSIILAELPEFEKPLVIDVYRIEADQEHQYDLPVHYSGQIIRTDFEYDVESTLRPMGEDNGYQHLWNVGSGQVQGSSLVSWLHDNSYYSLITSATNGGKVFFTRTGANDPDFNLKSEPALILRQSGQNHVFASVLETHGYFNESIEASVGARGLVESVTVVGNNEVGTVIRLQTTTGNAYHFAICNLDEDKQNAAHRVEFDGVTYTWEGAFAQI
# VaAly17A = target: T2, VaAly17A (Vibrio alginolyticus, UniProt A0A2I3CRJ2); test: TBA assay, TLC, gel filtration HPLC, ESI-MS; assay type: biochemical; settings: pH 8.0, 200 mM NaCl, 30 °C, 0.3% substrate; exolytic, from the nonreducing end
# T2 construct: gene N646_4459; N-terminal His tag, E. coli BL21(DE3), plasmid pZLZ04; no signal peptide predicted; theoretical 81,525 Da
# T2 sequence (A0A2I3CRJ2 1-721): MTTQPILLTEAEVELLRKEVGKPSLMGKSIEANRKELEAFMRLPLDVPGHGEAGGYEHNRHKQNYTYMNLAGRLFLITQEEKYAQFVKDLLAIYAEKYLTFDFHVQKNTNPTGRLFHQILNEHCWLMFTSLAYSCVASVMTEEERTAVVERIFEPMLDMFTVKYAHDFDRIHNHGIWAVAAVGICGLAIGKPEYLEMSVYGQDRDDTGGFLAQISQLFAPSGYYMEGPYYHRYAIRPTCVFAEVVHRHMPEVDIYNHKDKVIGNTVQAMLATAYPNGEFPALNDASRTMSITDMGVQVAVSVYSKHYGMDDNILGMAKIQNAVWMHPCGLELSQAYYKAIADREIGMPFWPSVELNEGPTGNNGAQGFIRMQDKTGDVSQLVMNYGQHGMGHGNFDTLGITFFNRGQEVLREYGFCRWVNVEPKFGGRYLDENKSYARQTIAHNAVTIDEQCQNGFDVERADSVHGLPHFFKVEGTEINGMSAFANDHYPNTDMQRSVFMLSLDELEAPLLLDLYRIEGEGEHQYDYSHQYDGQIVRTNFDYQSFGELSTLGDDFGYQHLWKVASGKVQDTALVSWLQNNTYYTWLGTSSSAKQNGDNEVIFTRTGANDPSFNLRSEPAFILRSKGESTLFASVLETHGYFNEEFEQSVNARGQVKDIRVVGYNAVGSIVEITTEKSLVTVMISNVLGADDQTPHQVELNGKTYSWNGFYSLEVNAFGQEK
SMILES,specific activity (VaAly17B),specific activity (VaAly17A)
"O=C(O)[C@H]1O[C@@H](O[C@H]2[C@H](O)[C@H](O)C(O)O[C@@H]2C(=O)O)[C@@H](O)[C@@H](O)[C@@H]1O (some centres unmarked) [M2, Dimer-M2]",VaAly17B could degrade M2 into monomers,–
"O=C(O)[C@H]1O[C@@H](O[C@H]2[C@H](O)[C@H](O)[C@H](O[C@H]3[C@H](O)[C@H](O)C(O)O[C@@H]3C(=O)O)O[C@@H]2C(=O)O)[C@@H](O)[C@@H](O)[C@@H]1O (some centres unmarked) [M3, Trimer-M3]",–,unsaturated M2 was produced when M3 was used as the substrate
